Marks after values point to notes of the source that are not given here.
Legend:
CD3+ BAL cells = assay: Intracellular cytokine expression by CD3+ T cells following in vivo peptide treatment; set-up: species or system BALB/c mice
Method: (§1) On day −1, prior to RSV infection, mice were i.p. treated (0.1 ml/mouse) with 100 μM of G glycoprotein peptides RT33 (CWAIC) (SEQ ID NO: 12), RT34 (lacks the CX3C motif) or peptides with changes in the CX3C motif (Δ+1, Δ−1, EYp1). Control mice were treated with PBS containing a similar dilution of DMSO used to solubilize the peptides.
Intracellular cytokine staining was modified for microculture staining as described (55, 57). Briefly, BAL cells were incubated in PBS containing Golgi Stop (Pharmingen) for 3 h at 37° C. to allow for accumulation of intracellular cytokines. The cells were washed in PBS containing 1% bovine serum albumin, blocked with 10% normal mouse sera diluted in PBS containing 1% bovine serum albumin, and stained (4° C., 30 min) with an appropriate dilution of anti-CD3 antibody, fixed and permeabilized in Cytofix/Cytoperm (Pharmingen). The cells were washed in Cytofix/Cytoperm buffer and stained (4° C., 30 min) with appropriate dilutions of anti-IL-2 (JES6-5H4), anti-IL-4 (BVD4-1D11), anti-IL-5 (TRFK5), IL-10 (JES3-16E3), anti-IFNγ (XMG1.2), or anti-TNFα (MP6-XT22) antibodies (Pharmingen) diluted in Cytofix/Cytoperm. Extra- and intracellular staining was analyzed by flow cytometry using a FACScan and Cell Quest software (Becton Dickinson, San Diego, Calif.). Total cytokine expression by CD3+ T cells was determined from the percent cytokine expression of CD3+ T cells and total number of cells recovered. The total number of CD3+ BAL cells expressing a particular cytokine was determined by multiplying the total number of BAL cells by the percent CD3+ cells expressing that particular cytokine.

[1] = system: bronchoalveolar leukocytes (BAL); assay: BAL cell infiltration and cell types in RSV-infected mice following in vivo peptide treatment; set-up: species or system BALB/c mice; details: in words; for total BAL numbers compared to mice treated with RT34, Δ−1 or PBS: day 3 pi; for course of BAL numbers: from day 3 to day 14 pi
From the text: Total pulmonary leukocyte trafficking following treatment of mice with peptides containing a CX3C motif (RT33 and EYp1) (A) or peptides without a CX3C motif (RT34, Δ+1, Δ−1)(B).
(§2) Flow cytometry results following treatment (d−1) of mice with PBS, RT33, RT34, Δ+1, Δ−1 and EYp1 peptides (100 μm). BAL cells were stained with antibodies against B220^+ (A, D, G), CD3^+ (B, E, H) and CD11b^+ (C, F, I) cells. Data is expressed as the total BAL cells/lung±SEM at days 3, 5, 7 and 14 post-infection. A representative experiment from 3 independent experiments is shown.
as §2, with “NK (DX5^+)” for “B220^+”, “(A, C, E) and PMN (RB6-8C5^+) cells (B,” for “(A,”, “F).” for “G), CD3^+ (B, E, H) and CD11b^+ (C, F, I) cells.”
as §1
Mice were anesthetized with Avertin and exsanguinated by severing the right caudal artery. Bronchoalveolar leukocyte (BAL) cells were harvested by lung lavage with PBS containing 1% bovine serum albumin (BSA, Sigma). The procedure used for extracellular staining of BAL cells was modified for microculture staining as described (55,57). Briefly, BAL cells were washed in Dulbecco's PBS (GIBCO) containing 1% bovine serum albumin (Sigma), blocked with 10% normal mouse sera diluted in PBS containing 1% bovine serum albumin, and then stained (4° C., 30 min) with an appropriate dilution of FITC-conjugated or PE-conjugated anti-CD3ε (145-2C11), anti-CD45R/B220 (RA3-6B2), anti-CD8 (Ly-2), anti-neutrophil (PMN) (RB6-8C5), anti-CD11b (M1/70) and isotype antibody controls (all from Pharmingen, San Diego, Calif.).

[2] = day 3 pi, peptide 24 hours prior to RSV infection

Sequence | Total IC cytokine Expressing CD3^+ BAL cells (×10^3) ± SEM: IFNγ (CD3+ BAL cells; day 3 pi) | Total IC cytokine Expressing CD3^+ BAL cells (×10^3) ± SEM: IL-4 (CD3+ BAL cells; day 3 pi) | Total IC cytokine Expressing CD3^+ BAL cells (×10^3) ± SEM: IL-5 (CD3+ BAL cells; day 3 pi) | Total IC cytokine Expressing CD3^+ BAL cells (×10^3) ± SEM: IL-6 (CD3+ BAL cells; day 3 pi) | Total IC cytokine Expressing CD3^+ BAL cells (×10^3) ± SEM: TNFα (CD3+ BAL cells; day 3 pi) | Total IC cytokine Expressing CD3^+ BAL cells (×10^3) ± SEM: IL-2 (CD3+ BAL cells; [2]) | Total IC cytokine Expressing CD3^+ BAL cells (×10^3) ± SEM: IFNγ (CD3+ BAL cells; day 5 pi) | Total IC cytokine Expressing CD3^+ BAL cells (×10^3) ± SEM: IL-2 (CD3+ BAL cells; day 5 pi) | Total IC cytokine Expressing CD3^+ BAL cells (×10^3) ± SEM: IL-4 (CD3+ BAL cells; day 5 pi) | Total IC cytokine Expressing CD3^+ BAL cells (×10^3) ± SEM: IL-5 (CD3+ BAL cells; day 5 pi) | Total IC cytokine Expressing CD3^+ BAL cells (×10^3) ± SEM: IL-6 (CD3+ BAL cells; day 5 pi) | Total IC cytokine Expressing CD3^+ BAL cells (×10^3) ± SEM: TNFα (CD3+ BAL cells; day 5 pi) | Total IC cytokine Expressing CD3^+ BAL cells (×10^3) ± SEM: IFNγ (CD3+ BAL cells; day 7 pi) | Total IC cytokine Expressing CD3^+ BAL cells (×10^3) ± SEM: IL-2 (CD3+ BAL cells; day 7 pi) | Total IC cytokine Expressing CD3^+ BAL cells (×10^3) ± SEM: IL-4 (CD3+ BAL cells; day 7 pi) | Total IC cytokine Expressing CD3^+ BAL cells (×10^3) ± SEM: IL-5 (CD3+ BAL cells; day 7 pi) | Total IC cytokine Expressing CD3^+ BAL cells (×10^3) ± SEM: IL-6 (CD3+ BAL cells; day 7 pi) | Total IC cytokine Expressing CD3^+ BAL cells (×10^3) ± SEM: TNFα (CD3+ BAL cells; day 7 pi) | Total IC cytokine Expressing CD3^+ BAL cells (×10^3) ± SEM: IFNγ (CD3+ BAL cells; day 14 pi) | Total IC cytokine Expressing CD3^+ BAL cells (×10^3) ± SEM: IL-2 (CD3+ BAL cells; day 14 pi) | other results
NKKPGKKTTTKP [RT34] | 43 ± 9.4 ×10^3 | 43 ± 9.2 ×10^3 | 28 ± 8.0 ×10^3 | 47 ± 10 ×10^3 | 57 ± 12 ×10^3 | 40 ± 8.5 ×10^3 | 18 ± 2.6 ×10^3 | 19 ± 2.8 ×10^3 | 15 ± 2.2 ×10^3 | 24 ± 3.5 ×10^3 | 30 ± 4.4 ×10^3 | 27 ± 3.9 ×10^3 | 10 ± 3.5 ×10^3 | 7.7 ± 2.6 ×10^3 | 11 ± 3.6 ×10^3 | 8.7 ± 2.9 ×10^3 | 8.9 ± 3.0 ×10^3 | 31 ± 5.0 ×10^3 | 9.7 ± 1.5 ×10^3 | 5.4 ± 1.9 ×10^3 | Total IC cytokine Expressing CD3^+ BAL cells (×10^3) ± SEM: IL-4 (CD3+ BAL cells; day 14 pi): 8.2 ± 1.3 ×10^3; Total IC cytokine Expressing CD3^+ BAL cells (×10^3) ± SEM: IL-5 (CD3+ BAL cells; day 14 pi): 10 ± 1.7 ×10^3; Total IC cytokine Expressing CD3^+ BAL cells (×10^3) ± SEM: IL-6 (CD3+ BAL cells; day 14 pi): 11 ± 1.7 ×10^3; Total IC cytokine Expressing CD3^+ BAL cells (×10^3) ± SEM: TNFα (CD3+ BAL cells; day 14 pi): 10 ± 1.6 ×10^3
TCWACKRIPNK (TCWAIACKRIPNK) [Δ − 1] | 47 ± 15 ×10^3 | 47 ± 15 ×10^3 | 49 ± 16 ×10^3 | 51 ± 17 ×10^3 | 55 ± 17 ×10^3 | 46 ± 15 ×10^3 | 10 ± 1.6 ×10^3 | 11 ± 1.7 ×10^3 | 13 ± 1.9 ×10^3 | 15 ± 2.2 ×10^3 | 13 ± 2.0 ×10^3 | 18 ± 2.7 ×10^3 | 4.7 ± 0.7 ×10^3 | 3.5 ± 0.5 ×10^3 | 2.8 ± 0.4 ×10^3 | 4.2 ± 0.6 ×10^3 | 6.3 ± 1.0 ×10^3 | 12 ± 0.7 ×10^3 | 10 ± 1.2 ×10^3 | 8.7 ± 1.0 ×10^3 | Total IC cytokine Expressing CD3^+ BAL cells (×10^3) ± SEM: IL-4 (CD3+ BAL cells; day 14 pi): 12 ± 1.4 ×10^3; Total IC cytokine Expressing CD3^+ BAL cells (×10^3) ± SEM: IL-5 (CD3+ BAL cells; day 14 pi): 14 ± 1.7 ×10^3; Total IC cytokine Expressing CD3^+ BAL cells (×10^3) ± SEM: IL-6 (CD3+ BAL cells; day 14 pi): 13 ± 1.6 ×10^3; Total IC cytokine Expressing CD3^+ BAL cells (×10^3) ± SEM: TNFα (CD3+ BAL cells; day 14 pi): 11 ± 1.4 ×10^3
TCWAIACKRIPNK [Δ + 1] | 18 ± 2.2 ×10^3 | 18 ± 2.3 ×10^3 | 23 ± 2.9 ×10^3 | 21 ± 2.8 ×10^3 | 19 ± 2.5 ×10^3 | 15 ± 2.0 ×10^3 | 17 ± 5.3 ×10^3 | 16 ± 5.1 ×10^3 | 20 ± 6.2 ×10^3 | 23 ± 7.2 ×10^3 | 21 ± 6.5 ×10^3 | 21 ± 6.8 ×10^3 | 5.6 ± 1.6 ×10^3 | 7.5 ± 2.2 ×10^3 | 5.8 ± 1.7 ×10^3 | 9.9 ± 2.9 ×10^3 | 11 ± 3.3 ×10^3 | 15 ± 2.9 ×10^3 | 11 ± 3.5 ×10^3 | 10 ± 3.2 ×10^3 | total BAL numbers compared to mice treated with RT34, Δ−1 or PBS [1]: reduced BAL infiltrate; course of BAL numbers [1]: increased; Total IC cytokine Expressing CD3^+ BAL cells (×10^3) ± SEM: IL-4 (CD3+ BAL cells; day 14 pi): 14 ± 4.2 ×10^3; Total IC cytokine Expressing CD3^+ BAL cells (×10^3) ± SEM: IL-5 (CD3+ BAL cells; day 14 pi): 16 ± 4.9 ×10^3; Total IC cytokine Expressing CD3^+ BAL cells (×10^3) ± SEM: IL-6 (CD3+ BAL cells; day 14 pi): 12 ± 3.7 ×10^3; Total IC cytokine Expressing CD3^+ BAL cells (×10^3) ± SEM: TNFα (CD3+ BAL cells; day 14 pi): 15 ± 4.7 ×10^3
TCWAICKRIPNK [RT33] | 24 ± 5.6 ×10^3 | 24 ± 6.0 ×10^3 | 22 ± 5.6 ×10^3 | 27 ± 6.8 ×10^3 | 28 ± 7.0 ×10^3 | 26 ± 6.5^c ×10^3 | 8.0 ± 1.0 ×10^3 | 9.0 ± 1.1 ×10^3 | 11 ± 1.3 ×10^3 | 12 ± 1.5 ×10^3 | 9.0 ± 1.2 ×10^3 | 9.0 ± 1.1 ×10^3 | 3.6 ± 0.5 ×10^3 | 2.4 ± 0.3 ×10^3 | 2.3 ± 0.3 ×10^3 | 5.2 ± 0.7 ×10^3 | 5.8 ± 0.8 ×10^3 | 13 ± 0.8 ×10^3 | 6.5 ± 2.1 ×10^3 | 3.0 ± 1.0 ×10^3 | total BAL numbers compared to mice treated with RT34, Δ−1 or PBS [1]: reduced BAL numbers; numbers of BAL cell types (B220+, CD3+, CD11b+, NK, PMN) ([1]; days 3, 5, 7 and 14 pi): reduced numbers of BAL cell types; course of BAL numbers [1]: declined; Total IC cytokine Expressing CD3^+ BAL cells (×10^3) ± SEM: IL-4 (CD3+ BAL cells; day 14 pi): 8.2 ± 2.7 ×10^3; Total IC cytokine Expressing CD3^+ BAL cells (×10^3) ± SEM: IL-5 (CD3+ BAL cells; day 14 pi): 5.3 ± 1.7 ×10^3; Total IC cytokine Expressing CD3^+ BAL cells (×10^3) ± SEM: IL-6 (CD3+ BAL cells; day 14 pi): 4.7 ± 1.5 ×10^3; Total IC cytokine Expressing CD3^+ BAL cells (×10^3) ± SEM: TNFα (CD3+ BAL cells; day 14 pi): 8.7 ± 2.6 ×10^3

Reference: patent publication US8173131B2, “Compositions and methods for modulating RSV infection and immunity” (PerkinElmer Health Sciences, Inc., priority 2000, dated 2012)
